# Laboratory results taken from patent publication US6602511B2, “Microemulsions for use as vehicles for administration of active compounds” (AstraZeneca AB, priority 1995, dated 2003).
# Experiments:
# [1] = Solubility of sparingly soluble substances in water, microemulsion and PEG 400 (50%)
# Experimental: (§1) Different amounts of the substances were added to 1 ml samples of the microemulsion placed in glass vials. The samples were rotated for 48 hours to allow a complete wetting of the solid substance. The samples were than kept in a waterbath at 25° C. for at least one week before inspection. The samples were inspected for any solid substance or phase separation and the maximum solubility was defined as the range between the last sample in each series without any trace of solids or phase separation, and the first sample with remaining and undissolved substance or a phase separation.
# [2] = physchem; conditions: aqueous with cosolvent or surfactant or cyclodextrin
# Experimental: as §1
"solubility ([1]; PEG 400 (50%) solution, aqueous with cosolvent or surfactant or cyclodextrin)",Sol. in water ([1]; in water),"sol. in microemulsion 1a ([1]; microemulsion 1a, 25° C., at least one week, range between last clear and first undissolved sample)","sol. in microemulsion 1b ([1]; microemulsion 1b, 25° C., at least one week, range between last clear and first undissolved sample)",amount possible to administrate using the microemulsion compared to a 50% solution PEG 400 ([1]; microemulsion vs 50% solution PEG 400),solubility [2],SMILES
200 µg/mL,2.0 mg/L,40000 to 50000 mg/L,60000 to 75000 mg/L,over 100 times,,"CCOc1c(C)cc2c(c1C)[C@@]1(C)Cc3ccccc3[C@@]1(C)N2 (relative stereo) [The indeno indole, cis-4b,5,9b,10-tetrahydro-4b,7,9,9b-tetramethyl-8-ethoxy-indeno(1,2-b)indole]"
,,,,,700 µg/mL,"CCOC(=O)C1=C(C)NC(C)=C(C(=O)OC)C1c1cccc(Cl)c1Cl (stereo not drawn) [Felodipine, ethyl methyl 4-(2,3-dichlorophenyl)-1,4-dihydro-2,6-dimethyl-3,5-pyridinedicarboxylate]"
